From ChEMBL document CHEMBL1201862, “PubChem BioAssay data set” (2004)
Active and inactive are the calls of the source.

Experiments:
[1] = target: T1, Mannose-6-phosphate isomerase (Homo sapiens, UniProt P34949); assay: MPI inhibition at elevated mannose 6-phosphate – biochemical, fluorescence intensity, high mannose 6-phosphate, primary screen (AID 1220)
T1 sequence (P34949 whole entry): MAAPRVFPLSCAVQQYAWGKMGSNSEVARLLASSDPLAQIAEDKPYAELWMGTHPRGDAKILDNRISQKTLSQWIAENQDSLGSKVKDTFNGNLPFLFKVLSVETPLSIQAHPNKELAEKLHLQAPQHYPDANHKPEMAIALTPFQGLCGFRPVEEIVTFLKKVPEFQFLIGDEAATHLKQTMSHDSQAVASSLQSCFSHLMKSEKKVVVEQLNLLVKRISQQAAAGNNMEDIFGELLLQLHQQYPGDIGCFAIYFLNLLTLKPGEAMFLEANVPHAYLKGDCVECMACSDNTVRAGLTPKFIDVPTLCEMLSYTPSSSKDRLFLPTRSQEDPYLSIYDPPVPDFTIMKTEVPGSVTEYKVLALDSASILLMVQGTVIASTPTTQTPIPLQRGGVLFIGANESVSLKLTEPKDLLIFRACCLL

[2] = target: T2, Polyadenylate-binding protein 1 (Homo sapiens, UniProt P11940); assay: MLLE binding blockers, Cy5 peptide tracer – biochemical, fluorescence polarization, Cy5-PAM2 peptide, secondary, miRNA deadenylation inhibitor project, dose response (AID 602260); type: functional; conditions: read-out: IC50_Mean
[3] = target: T2, Polyadenylate-binding protein 1; assay: MLLE domain peptide-binding blockers, IC50 – biochemical, fluorescence polarization, FITC-PAM2 peptide, dose response (AID 602259); type: functional; conditions: read-out: IC50_Mean
[4] = target: Nonstructural protein 1 (Influenza A virus, UniProt Q194T2); type: functional, Influenza A virus (A/California/07/2009(H1N1))
[5] = cells; type: functional, cell-based
[6] = cells; type: functional, cell-based; remark: listed apart in the source
[7] = target: Cytochrome P450 2C9 (Homo sapiens, UniProt P11712); conditions: Potency
[8] = system: BJ; assay: BJ-TERT fibroblast viability loss – cell-based, RAS-independent, luminescence, dose response (AID 1933); type: functional; conditions: Homo sapiens
[9] = DRD fibroblast viability loss – cell-based, non-viral oncogenic, luminescence, dose response (AID 1934); type: functional; conditions: Homo sapiens
[10] = system: BJ; assay: cells; type: functional, cell-based; conditions: Homo sapiens
[11] = system: BJ; assay: BJ-TERT-LT-ST fibroblast viability loss – cell-based, RAS-independent, luminescence, dose response (AID 1935); type: functional; conditions: Homo sapiens;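 note: BJ fibroblasts immortalized with TERT plus LT and ST oncogenes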
[12] = target: Paired box protein Pax-8 (Homo sapiens, UniProt Q06710); assay: PAX8 transcriptional activity inhibition in RMG-I – RMG-I cells, luciferase, cherry-pick, dose response (AID 687027); type: functional, cell-based;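 note: luciferase reporter driven by Pax8 target thyroperoxidase promoter measured by SteadyGlo luminescence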
[13] = general cell-killing toxicity readout – plate reader, dry powder samples, cytotoxicity control for PAX8 inhibitor project, dose response (AID 743021); type: functional, cell-based
[14] = HIV-1 AD8 envelope cell-cell fusion blockers – cherry-pick, dose response (AID 652062); type: functional, cell-based;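 note: luciferase signal from cell-cell fusion driven by HIV-1 clade B AD8 Env; potency is for inhibitors of fusion seen as a drop in luminescence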
[15] = blockers of HIV-1 envelope-mediated cell-cell fusion – cherry-pick, dose response (AID 652057); type: functional, cell-based
[16] = off-target signal loss in HeLa-CEM21 co-culture – HeLa F-luc CTL cells, cherry-picked, counter-screen for HIV-1 Env fusion inhibitor project, dose response (AID 652040); type: functional, cell-based;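 note: potency for signal decrease marking cytotoxic or nonspecific inhibition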
[17] = blockers of HIV-1 ZM109 envelope-driven cell-cell fusion – HeLa effector, CEM target cells, luciferase, cherry-pick, dose response (AID 652058); type: functional, cell-based;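 note: luciferase signal from HIV-1 Env mediated cell-cell fusion of effector and target cells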
[18] = P. falciparum Dd2 growth inhibitors, dose response, SYBR Green, cherry-picked samples (AID 1159567); type: functional, cell-based
[19] = toxicity to human hepatoma HepG2 cells – cell-based, cherry-picked samples, cytotoxicity control, dose response (AID 1159577); type: functional

T2 sequence (P11940 whole entry, the tested form may be a part): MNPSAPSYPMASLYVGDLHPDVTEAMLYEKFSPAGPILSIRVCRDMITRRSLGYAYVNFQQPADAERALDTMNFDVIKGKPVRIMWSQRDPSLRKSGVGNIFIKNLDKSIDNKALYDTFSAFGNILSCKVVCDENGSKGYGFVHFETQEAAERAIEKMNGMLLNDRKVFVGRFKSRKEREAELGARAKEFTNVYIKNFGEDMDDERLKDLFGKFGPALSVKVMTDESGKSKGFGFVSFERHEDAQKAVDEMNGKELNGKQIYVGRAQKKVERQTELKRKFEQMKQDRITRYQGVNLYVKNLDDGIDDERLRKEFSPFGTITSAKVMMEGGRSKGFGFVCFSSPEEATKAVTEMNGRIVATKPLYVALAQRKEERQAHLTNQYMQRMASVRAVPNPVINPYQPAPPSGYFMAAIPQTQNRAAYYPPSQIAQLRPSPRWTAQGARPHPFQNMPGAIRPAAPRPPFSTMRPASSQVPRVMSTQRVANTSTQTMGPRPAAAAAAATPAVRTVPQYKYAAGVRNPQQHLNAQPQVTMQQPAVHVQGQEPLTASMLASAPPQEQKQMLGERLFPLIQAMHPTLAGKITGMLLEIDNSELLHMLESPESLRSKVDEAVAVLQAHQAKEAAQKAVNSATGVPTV
Sequence of Paired box protein Pax-8 (Q06710 whole entry): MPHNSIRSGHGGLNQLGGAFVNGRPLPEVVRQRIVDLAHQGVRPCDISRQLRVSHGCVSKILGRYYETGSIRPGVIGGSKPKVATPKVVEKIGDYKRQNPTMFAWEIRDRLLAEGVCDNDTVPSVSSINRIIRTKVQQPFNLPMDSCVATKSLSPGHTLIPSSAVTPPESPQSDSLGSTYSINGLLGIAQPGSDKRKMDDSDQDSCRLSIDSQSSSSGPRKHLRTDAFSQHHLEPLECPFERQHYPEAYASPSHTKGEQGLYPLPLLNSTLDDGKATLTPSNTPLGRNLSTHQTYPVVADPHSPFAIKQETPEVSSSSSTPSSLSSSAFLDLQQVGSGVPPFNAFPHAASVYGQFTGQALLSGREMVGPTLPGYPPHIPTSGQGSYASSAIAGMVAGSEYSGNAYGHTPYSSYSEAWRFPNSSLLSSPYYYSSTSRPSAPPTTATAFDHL
Sequence of Cytochrome P450 2C9 (P11712 whole entry): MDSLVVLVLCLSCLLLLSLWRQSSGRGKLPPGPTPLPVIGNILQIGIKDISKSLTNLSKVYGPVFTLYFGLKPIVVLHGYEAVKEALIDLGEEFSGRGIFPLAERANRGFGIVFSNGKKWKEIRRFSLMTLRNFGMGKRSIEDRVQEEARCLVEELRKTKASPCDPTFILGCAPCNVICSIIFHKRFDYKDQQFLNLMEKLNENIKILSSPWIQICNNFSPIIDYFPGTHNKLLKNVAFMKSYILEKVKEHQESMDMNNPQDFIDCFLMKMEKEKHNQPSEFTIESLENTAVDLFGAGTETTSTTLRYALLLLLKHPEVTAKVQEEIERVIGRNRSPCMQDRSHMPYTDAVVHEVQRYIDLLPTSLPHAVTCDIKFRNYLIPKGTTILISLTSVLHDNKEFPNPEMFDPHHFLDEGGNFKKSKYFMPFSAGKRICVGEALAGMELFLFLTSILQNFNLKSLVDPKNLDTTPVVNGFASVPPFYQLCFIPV
Sequence of Nonstructural protein 1 (Q194T2 whole entry): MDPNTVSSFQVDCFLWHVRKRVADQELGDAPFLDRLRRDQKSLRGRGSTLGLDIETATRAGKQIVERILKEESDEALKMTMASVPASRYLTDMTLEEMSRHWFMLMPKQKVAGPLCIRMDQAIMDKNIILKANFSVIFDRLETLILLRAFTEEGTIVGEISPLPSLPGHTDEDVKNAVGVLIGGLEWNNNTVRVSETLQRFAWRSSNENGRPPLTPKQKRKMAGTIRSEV

## N#Cc1cc2c(nc1S)CCCCCC2
[1]
  IC50: > 50 µM (not active)
[2]
  IC50: > 66 µM (inactive)
[3]
  IC50: > 66 µM (inactive)

## CC(C)(C)Nc1c([N+](=O)[O-])ccc2c1=NC1(CCCCC1)[N+]=2[O-]
[1]
  IC50: > 50 µM (not active)
[4]
  IC50: 18.1 µM (active)

## COc1cc2c(cc1OC)C(C)N(S(=O)(=O)c1ccc(Cl)nc1)CC2 (stereo not drawn)
[5]
  EC50: > 350 µM (not active)
[6]
  EC50: > 350 µM (not active)

## COc1ccc(NC(=S)Nc2ccc3nccnc3c2)cc1
[1]
  IC50: > 50 µM (not active)

## O=C(c1ccc(F)cc1)N(Cc1cccs1)C1CCS(=O)(=O)C1 (stereo not drawn)
[5]
  EC50: > 350 µM (not active)
[6]
  EC50: > 350 µM (not active)

## C=CCOC(=O)C(C(C)=O)C(NC(=O)OC)c1cccc(F)c1 (stereo not drawn)
[7]
  AC50: 1 µM (inconclusive)

## NCCC[C@@H](CC(=O)N[C@@H]1CCCC[C@H]1C(=O)N[C@H](CC(=O)N[C@@H](CCC(=O)O)CC(=O)O)Cc1c[nH]c2ccccc12)NC(=O)C[C@H](CO)NC(=O)[C@@H]1CCCC[C@H]1N
[7]
  AC50: 31.6 µM (inconclusive)

## COc1cccc(NC(=O)Nc2nc(-c3ccc(OC)c(OC)c3)cs2)c1
[8]
  EC50: 5.89 µM (active)
[9]
  EC50: 5.56 µM (active)
[10]
  EC50: 8.03 µM (active)
[11]
  EC50: 9.04 µM (inconclusive)
[12]
  AC50: 7.88 µM (active)
[13]
  AC50: 12.3 µM (active)

## O=C1CCCC2=C1C(Cc1ccccc1)C1=C(CCCC1=O)O2
[5]
  EC50: > 350 µM (not active)
[6]
  EC50: > 350 µM (not active)

## Nc1cc(-c2ccccc2)nn1S(=O)(=O)c1ccc(F)cc1
[14]
  AC50: 3.99 µM (active)
[15]
  AC50: 59.6 µM (active)
[16]
  AC50: 3.4 µM (active)

## CC1CN(c2nc3ccccn3c(=O)c2/C=C(\C#N)C(=O)N2CCOCC2)CC(C)O1 (stereo not drawn)
[5]
  EC50: > 350 µM (not active)
[6]
  EC50: > 350 µM (not active)

## COc1ccc(-c2ccc(C(=O)O)o2)c([N+](=O)[O-])c1
[1]
  IC50: > 50 µM (not active)

## COC(=O)C1(C(=O)OC)C[C@H](c2ccccc2)N(Cc2ccccc2OC)[C@@H]1c1ccccc1
[14]
  AC50: 2.41 µM (active)
[15]
  AC50: 1.65 µM (active)
[16]
  AC50: 3.26 µM (active)
[17]
  AC50: 1.75 µM (active)

## CCC(=O)N(C)C[C@@H]1Oc2cc(C#Cc3ccccc3)ccc2S(=O)(=O)N([C@H](C)CO)C[C@H]1C
[14]
  AC50: 54.8 µM (active)
[15]
  AC50: 7.15 µM (active)
[17]
  AC50: 1.58 µM (active)

## O=C(Cc1ccccn1)N1CCCCN2[C@@H](CO)[C@@H](c3ccc(-c4ccccc4F)cc3)[C@@H]2C1
[12]
  AC50: 57 µM (active)
[13]
  AC50: 46.2 µM (active)

## OC[C@@H]1[C@H](c2ccc(C3=CCCCC3)cc2)[C@@H](CNC2CCCC2)N1CC1CC1
[18]
  AC50: 1.61 µM (active)
[19]
  AC50: 21.9 µM (active)

## COc1cccc(S(=O)(=O)Nc2ccc3c(c2)[C@@H]2C[C@H](CC(=O)NCc4ccccc4F)O[C@@H](CO)[C@@H]2O3)c1
[18]
  AC50: 5.32 µM (active)
[19]
  AC50: > 39 µM (inactive)

## CCCN(C)C[C@H]1Oc2ncc(C#Cc3ccc(OC)cc3)cc2C(=O)N([C@@H](C)CO)C[C@H]1C
[18]
  AC50: 2.78 µM (active)
[19]
  AC50: 28.8 µM (active)

## COc1ccc2c3c(n(C)c2c1)[C@@H](CO)N(Cc1ccc(F)cc1)CC31CCN(CC2CC2)CC1
[18]
  AC50: 3.48 µM (active)
[19]
  AC50: > 39 µM (inactive)
